Measured values reported in ChEMBL document CHEMBL1201862, “PubChem BioAssay data set” (2004).
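Values below derive from 48-hour exposures of cells grown in 96-well plates, with endpoints linearly interpolated between the two concentrations bracketing the appropriate inhibition level. GI50 marks 50% less growth.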 The source made the active and inactive calls. Cut-off read from the data, not from the text of the source: active = GI50 up to about 1.1 µM and inactive = higher.

What was measured:
Experiment in all cases: NCI-60 cell line screen, 48 h
NCI-H23 = tested on: NCI-H23
SF-268 = tested on: SF-268
K562 = tested on: K562
OVCAR-5 = tested on: OVCAR-5
OVCAR-8 = tested on: OVCAR-8
DMS-114 = tested on: DMS-114
HT-29 = tested on: HT-29
SK-MEL-2 = tested on: SK-MEL-2
CAKI-1 = tested on: CAKI-1
NCI-H460 = tested on: NCI-H460
SF-295 = tested on: SF-295
OVCAR-3 = tested on: OVCAR-3
M14 = tested on: M14
LOX IMVI = tested on: LOX IMVI
BT-549 = tested on: BT-549
NCI/ADR-RES = tested on: NCI/ADR-RES
DU-145 = tested on: DU-145
T47D = tested on: T47D
MDA-MB-231 = tested on: MDA-MB-231

| SMILES | GI50 (NCI-H23) | GI50 (SF-268) | GI50 (K562) | GI50 (OVCAR-5) | GI50 (OVCAR-8) | GI50 (DMS-114) | GI50 (HT-29) | GI50 (SK-MEL-2) | GI50 (CAKI-1) | GI50 (NCI-H460) | GI50 (SF-295) | GI50 (OVCAR-3) | GI50 (M14) | GI50 (LOX IMVI) | GI50 (BT-549) | GI50 (NCI/ADR-RES) | GI50 (DU-145) | GI50 (T47D) | GI50 (MDA-MB-231) |
| --- | --- | --- | --- | --- | --- | --- | --- | --- | --- | --- | --- | --- | --- | --- | --- | --- | --- | --- | --- |
| O=c1ccc2ccccc2c2ccccc12 | 2.83 µM (inactive) | 2.79 µM (inactive) | 3.7 µM (inactive) | 2.82 µM (inactive) | 2.34 µM (inactive) | 2.41 µM (inactive) | 2.93 µM (inactive) | 3.43 µM (inactive) | 2.81 µM (inactive) | 3.98 µM (inactive) | 3.61 µM (inactive) | 3.4 µM (inactive) | 2.42 µM (inactive) | 1.91 µM (inactive) | – | – | – | – | – |
| Nc1nc(N)c(-c2ccccc2)c(C(=O)Nc2ccc(Cl)c(Cl)c2)n1 | > 100 µM (inactive) | > 100 µM (inactive) | > 100 µM (inactive) | > 100 µM (inactive) | > 100 µM (inactive) | > 100 µM (inactive) | > 100 µM (inactive) | > 100 µM (inactive) | > 100 µM (inactive) | > 100 µM (inactive) | > 100 µM (inactive) | > 100 µM (inactive) | > 100 µM (inactive) | > 100 µM (inactive) | – | – | – | – | – |
| Cc1cccc(/C=N/C23CC4CC(CC(C4)C2)C3)c1 | > 100 µM (inactive) | > 100 µM (inactive) | > 100 µM (inactive) | > 100 µM (inactive) | > 100 µM (inactive) | > 100 µM (inactive) | > 100 µM (inactive) | > 100 µM (inactive) | > 100 µM (inactive) | > 100 µM (inactive) | > 100 µM (inactive) | > 100 µM (inactive) | > 100 µM (inactive) | > 100 µM (inactive) | – | – | – | – | – |
| COc1ccc(C2CC(C)=Nc3c(O)nc(S)nc3N2)cc1 (stereo not given) | 30.5 µM (inactive) | 37.7 µM (inactive) | 16.6 µM (inactive) | 23.4 µM (inactive) | 20 µM (inactive) | 21 µM (inactive) | 28.5 µM (inactive) | 63.8 µM (inactive) | 27.6 µM (inactive) | 16.6 µM (inactive) | 22 µM (inactive) | 22.4 µM (inactive) | 19.6 µM (inactive) | 17.4 µM (inactive) | – | – | – | – | – |
| O=C1C(c2ccccc2)=C(c2ccccc2)C(c2ccc(-c3ccc(C4=C(c5ccccc5)C(=O)C(c5ccccc5)=C4c4ccccc4)cc3)cc2)=C1c1ccccc1 | > 100 µM (inactive) | > 100 µM (inactive) | > 100 µM (inactive) | > 100 µM (inactive) | > 100 µM (inactive) | > 100 µM (inactive) | > 100 µM (inactive) | > 100 µM (inactive) | > 100 µM (inactive) | > 100 µM (inactive) | > 100 µM (inactive) | > 100 µM (inactive) | > 100 µM (inactive) | > 100 µM (inactive) | – | – | – | – | – |
| O=C1CC2CC=C[C@H]3c4cc5c(cc4C(=O)N1C23)OCO5 (stereo not given in full) | > 50 µM (inactive) | > 50 µM (inactive) | > 50 µM (inactive) | – | > 50 µM (inactive) | > 50 µM (inactive) | > 50 µM (inactive) | – | – | > 50 µM (inactive) | > 50 µM (inactive) | > 50 µM (inactive) | > 50 µM (inactive) | > 50 µM (inactive) | – | – | – | – | – |
| CN1CCOC(c2ccccc2)O1 (stereo not given) | > 100 µM (inactive) | > 100 µM (inactive) | > 100 µM (inactive) | > 100 µM (inactive) | > 100 µM (inactive) | > 100 µM (inactive) | > 100 µM (inactive) | > 100 µM (inactive) | > 100 µM (inactive) | > 100 µM (inactive) | > 100 µM (inactive) | > 100 µM (inactive) | > 100 µM (inactive) | > 100 µM (inactive) | – | – | – | – | – |
| O=C(Nc1ccccc1-c1n[nH]c(S)nc1=O)C(F)(F)F | > 100 µM (inactive) | > 100 µM (inactive) | > 100 µM (inactive) | > 100 µM (inactive) | > 100 µM (inactive) | > 100 µM (inactive) | > 100 µM (inactive) | > 100 µM (inactive) | > 100 µM (inactive) | > 100 µM (inactive) | > 100 µM (inactive) | > 100 µM (inactive) | > 100 µM (inactive) | > 100 µM (inactive) | – | – | – | – | – |
| Cc1ccc(NC(=O)SCCC(=O)O)cc1 | > 100 µM (inactive) | 17.2 µM (inactive) | > 100 µM (inactive) | > 100 µM (inactive) | > 100 µM (inactive) | > 100 µM (inactive) | > 100 µM (inactive) | > 100 µM (inactive) | > 100 µM (inactive) | > 100 µM (inactive) | > 100 µM (inactive) | > 100 µM (inactive) | > 100 µM (inactive) | > 100 µM (inactive) | – | – | – | – | – |
| COC[C@@H]1[C@H]2OC(C)(C)O[C@H]2C(=O)N1C(=O)c1ccc(OC)cc1 | > 100 µM (inactive) | > 100 µM (inactive) | > 100 µM (inactive) | > 100 µM (inactive) | > 100 µM (inactive) | > 100 µM (inactive) | > 100 µM (inactive) | > 100 µM (inactive) | > 100 µM (inactive) | > 100 µM (inactive) | > 100 µM (inactive) | > 100 µM (inactive) | > 100 µM (inactive) | > 100 µM (inactive) | – | – | – | – | – |
| COc1ccc(C2COc3c(ccc(OC)c3OC)C2=O)cc1OC (stereo not given) | > 100 µM (inactive) | > 100 µM (inactive) | > 100 µM (inactive) | – | > 100 µM (inactive) | 68.7 µM (inactive) | > 100 µM (inactive) | – | > 100 µM (inactive) | > 100 µM (inactive) | > 100 µM (inactive) | > 100 µM (inactive) | > 100 µM (inactive) | > 100 µM (inactive) | – | – | – | – | – |
| O=c1c2ccccc2nc(-c2cccc(Cl)c2)n1NC1OC(CO)C(O)C(O)C1O (stereo not given) | > 100 µM (inactive) | > 100 µM (inactive) | > 100 µM (inactive) | > 100 µM (inactive) | > 100 µM (inactive) | > 100 µM (inactive) | > 100 µM (inactive) | > 100 µM (inactive) | > 100 µM (inactive) | > 100 µM (inactive) | > 100 µM (inactive) | > 100 µM (inactive) | > 100 µM (inactive) | – | – | – | – | – | – |
| O=c1[nH]c(=O)n(C2CC(O)C(CO)O2)cc1C#Cc1ccc(C(F)(F)F)cc1 (stereo not given) | > 100 µM (inactive) | > 100 µM (inactive) | > 100 µM (inactive) | > 100 µM (inactive) | > 100 µM (inactive) | > 100 µM (inactive) | > 100 µM (inactive) | > 100 µM (inactive) | – | > 100 µM (inactive) | > 100 µM (inactive) | > 100 µM (inactive) | > 100 µM (inactive) | > 100 µM (inactive) | – | – | – | – | – |
| COc1ccccc1NS(=O)(=O)c1cc(C(C)(C)C)ccc1OCCOc1ccc(C(C)(C)C)cc1S(=O)(=O)Nc1ccccc1OC | > 100 µM (inactive) | > 100 µM (inactive) | > 100 µM (inactive) | > 100 µM (inactive) | > 100 µM (inactive) | > 100 µM (inactive) | > 100 µM (inactive) | > 100 µM (inactive) | > 100 µM (inactive) | > 100 µM (inactive) | > 100 µM (inactive) | > 100 µM (inactive) | > 100 µM (inactive) | > 100 µM (inactive) | – | – | – | – | – |
| O=C(Nc1ccn(CCOC(=O)c2ccccc2)c(=O)n1)c1ccccc1 | – | > 100 µM (inactive) | > 100 µM (inactive) | > 100 µM (inactive) | > 100 µM (inactive) | > 100 µM (inactive) | > 100 µM (inactive) | > 100 µM (inactive) | > 100 µM (inactive) | > 100 µM (inactive) | > 100 µM (inactive) | > 100 µM (inactive) | > 100 µM (inactive) | > 100 µM (inactive) | – | – | – | – | – |
| O=C1C=C(Nc2ccc(Cl)cc2C(=O)c2ccccc2)c2ccccc2C1=O | > 100 µM (inactive) | > 100 µM (inactive) | > 100 µM (inactive) | > 100 µM (inactive) | > 100 µM (inactive) | > 100 µM (inactive) | > 100 µM (inactive) | > 100 µM (inactive) | > 100 µM (inactive) | > 100 µM (inactive) | > 100 µM (inactive) | > 100 µM (inactive) | > 100 µM (inactive) | > 100 µM (inactive) | – | – | – | – | – |
| Cc1cccc(NC(=O)C(=O)Cc2nc3ccccc3nc2O)c1C | > 100 µM (inactive) | > 100 µM (inactive) | > 100 µM (inactive) | > 100 µM (inactive) | > 100 µM (inactive) | > 100 µM (inactive) | > 100 µM (inactive) | – | > 100 µM (inactive) | > 100 µM (inactive) | > 100 µM (inactive) | > 100 µM (inactive) | > 100 µM (inactive) | > 100 µM (inactive) | – | – | – | – | – |
| C[C@]12CCC(=O)C=C1CC[C@@H]1C2CC[C@]2(C)Nc3[nH]ncc3CC12 (stereo not given in full) | > 100 µM (inactive) | – | > 100 µM (inactive) | > 100 µM (inactive) | > 100 µM (inactive) | > 100 µM (inactive) | > 100 µM (inactive) | > 100 µM (inactive) | > 100 µM (inactive) | > 100 µM (inactive) | 94.2 µM (inactive) | > 100 µM (inactive) | > 100 µM (inactive) | – | – | – | – | – | – |
| CN(C)CCNc1ccc(CO)c2sc3ccc(O)cc3c(=O)c12 | 0.869 µM (active) | 1.55 µM (inactive) | 2.06 µM (inactive) | 5.26 µM (inactive) | 1.97 µM (inactive) | 0.681 µM (active) | 2.3 µM (inactive) | 5.21 µM (inactive) | 0.957 µM (active) | 0.0259 µM (active) | 1 µM (active) | 10.6 µM (inactive) | 3.01 µM (inactive) | 1.11 µM (active) | 2.62 µM (inactive) | 3.28 µM (inactive) | 0.467 µM (active) | 1.91 µM (inactive) | 1.85 µM (inactive) |
